# Reference: US6919464B1, “Synthetic derivatives of 21-butenyl and related spinosyns” (Dow AgroSciences LLC, priority 2001, dated 2005)
# Experiments:
# Type in all cases: in vivo
# Heliothis virescens [1] = assay: Tobacco Budworm (Heliothis virescens) topical assay
# Method: An additional measure of the relative insecticidal activities of the compounds of the invention was generated by using a 1 ug/ul acetone solution of each compound applied at 1 ug/larva of laboratory-reared Heliothis virescens larvae (mean weight of 22 mg). Each compound was applied along the dorsum of each of six larvae. Treated larvae were then held for two days at 21° C., 60% RH in six-well plastic culture plates. Larvae were each supplied with a 1 cm^3 of agar-based lepidoptera diet for sustenance during the two-day post-exposure interval. Percent mortality was determined at the end of a two-day period.
# Heliothis virescens [2] = assay: Tobacco Budworm (Heliothis virescens) feeding assay, cotton leaf-dip; conditions: second instar larvae; for mortality at 1.56 ppm / mortality at 400 ppm: Heliothis virescens, 96 h; for mortality at 1.56 ppm: rate 1.56 ppm
# Text: To compare insecticidal activities of compounds of the invention against second instar larval Heliothis virescens leaf-dip bioassay was used. Cotton cotyledon leaves were dipped in a test solution made up of the compound dissolved in acetone: Millipore water (2:1) at rates of 400 ppm to 1.56 ppm. Each cotyledon was placed individually on top of a moistened (distilled water) cotton ball in the bottom of a 1 oz plastic cup and allowed to dry (one hour). After drying, a single laboratory-reared second instar Heliothis virescens larva (mean weight 15 mg.) was placed on the treated leaf and the cup sealed with a lid, and held at 27° C. for four days. Percent mortality was determined at the end of the holding period.
# Aphis gossypii = assay: Cotton Aphid (Aphis gossypii) assay, spray on squash seedlings; conditions: rate 50 ppm, relative to plants sprayed with solvent only; for mortality at 50 ppm: Aphis gossypii, 72 h
# Method: Insecticidal activities of the compounds of the invention were also evaluated against cotton aphids (Aphis gossyppi) as follows. Summer crookneck squash seedlings at the expanded cotyledon stage are primed to a single cotyledon and infested with cotton aphids 16-24 hours before application of the test material by transfer of infested foliage cut from a stock colony. Immediately prior to spray application of the test material, the transfer foliage is removed from the squash plants. The test material is dissolved at 1 mg/ml in 90:10 acetone:alcohol, then diluted in water containing 0.05% Tween 20 (polyethylene (20) sorbitan monolaurate) to give test solution at a concentration of 50 ppm. The plants were sprayed with the test solution using an atomizing sprayer at 17 psi. Both surfaces of the cotyledons are covered until runnoff, and then allowed to dry. Activity of the compound was determined at three days after treatment. Activity was rated as a percent based on the number of aphids present in plants sprayed with solvent only.
compound,measurement,setting,value
"5,6,22,23-tetrahydro-for-(3′,4′-methylenedioxyrham)-I [Compound A26]",Tobacco Budworm Typical (48 h) Mortality (%),Heliothis virescens [1]; in vivo,83%
"CC/C=C/[C@H]1CCC[C@H](OC2CC[C@H](N(C)C)[C@@H](C)O2)[C@@H](C)C(=O)C2=CC3C(C=CC4C[C@@H](O[C@@H]5O[C@@H](C)[C@H](OC)[C@@H](OC)[C@H]5OCC)CC43)C2CC(=O)O1 (stereo partly drawn) [Compound A1, for-(2′-O-ethylrham)-I]",mortality at 1.56 ppm,Heliothis virescens [2],100%
same,mortality at 50 ppm,Aphis gossypii,87%
"CC/C=C/[C@H]1CCC[C@H](OC2CC[C@H](N(C)C)[C@@H](C)O2)[C@@H](C)C(=O)C2=CC3C(C=CC4C[C@@H](O[C@@H]5O[C@@H](C)[C@H](OC)[C@@H](OCC)[C@H]5OC)CC43)C2CC(=O)O1 (stereo partly drawn) [Compound A2, for-(3′-O-ethylrham)-I]",mortality at 1.56 ppm,Heliothis virescens [2],100%
same,mortality at 50 ppm,Aphis gossypii,97%
same,Tobacco Budworm Typical (48 h) Mortality (%),Heliothis virescens [1]; in vivo,100%
"CC/C=C/[C@H]1CCC[C@H](OC2CC[C@H](N(C)C)[C@@H](C)O2)[C@@H](C)C(=O)C2=CC3C(C=CC4C[C@@H](O[C@@H]5O[C@@H](C)[C@H](OCC)[C@@H](OCC)[C@H]5OC)CC43)C2CC(=O)O1 (stereo partly drawn) [Compound A3, for-(3′,4′-bis-O-ethylrham)-I]",Tobacco Budworm Typical (48 h) Mortality (%),Heliothis virescens [1]; in vivo,67%
"CCOC(C)/C=C/[C@H]1CCC[C@H](OC2CC[C@H](N(C)C)[C@@H](C)O2)[C@@H](C)C(=O)C2=CC3C(C=CC4C[C@@H](O[C@@H]5O[C@@H](C)[C@H](OC)[C@@H](OC)[C@H]5OC)CC43)C2CC(=O)O1 (stereo partly drawn) [Compound A4, (24-O-thyl) for-rham-I]",mortality at 400 ppm,Heliothis virescens [2]; rate 400 ppm,100%
same,mortality at 50 ppm,Aphis gossypii,99%
"CC/C=C/[C@H]1CCC[C@H](OC2CC[C@H](N(C)C)[C@@H](C)O2)[C@@H](C)C(=O)C2=CC3C(C=CC4C3C[C@H](O[C@@H]3O[C@@H](C)[C@H](OC)[C@@H](OC)[C@H]3OC)[C@H]4OCC)C2CC(=O)O1 (stereo partly drawn) [Compound A5, (8-O-ethyl)-for-rham-III]",mortality at 400 ppm,Heliothis virescens [2]; rate 400 ppm,100%
same,mortality at 50 ppm,Aphis gossypii,53%
"CC/C=C/[C@H]1CCC[C@H](OC2CC[C@H](N(C)C)[C@@H](C)O2)[C@@H](C)C(=O)C2=CC3C(C=CC4C[C@@H](O[C@@H]5O[C@@H](C)[C@H](OC)[C@@H](OCCC)[C@H]5OC)CC43)C2CC(=O)O1 (stereo partly drawn) [Compound A6, for-(3′-O-n-propylrham)-I]",mortality at 50 ppm,Aphis gossypii,54%
same,Tobacco Budworm Typical (48 h) Mortality (%),Heliothis virescens [1]; in vivo,100%
"CCCC[C@H]1CCC[C@H](O[C@H]2CC[C@H](N(C)C)[C@@H](C)O2)[C@@H](C)C(=O)C2=CC3C4C[C@H](O[C@@H]5O[C@@H](C)[C@H](O)[C@@H](OC)[C@H]5OC)CC4CCC3C2CC(=O)O1 (stereo partly drawn) [Compound A14, 5,6,22,23-tetrahydro for-(4′-O-desmethylrham)-I]",mortality at 50 ppm,Aphis gossypii,92%
same,Tobacco Budworm Typical (48 h) Mortality (%),Heliothis virescens [1]; in vivo,83%
CCCCC1CCCC(OC2CCC(N(C)C)C(C)O2)C(C)C(=O)C2=CC3C4CC(OC5OC(C)C(OC)C(OCC)C5OC)CC4CCC3C2CC(=O)O1 (stereo not drawn) [Compound A15],Tobacco Budworm Feeding (96 h) Mortality (%),Heliothis virescens [2]; rate 6.25 ppm,100%
same,Cotton Aphid mortality (72 h) Mortality (%),Aphis gossypii,100%
CCCCC1CCCC(OC2CCC(N(C)C)C(C)O2)C(C)C(=O)C2=CC3C4CC(OC5OC(C)C(OC)C(OCCC)C5OC)CC4CCC3C2CC(=O)O1 (stereo not drawn) [Compound A16],Tobacco Budworm Feeding (96 h) Mortality (%),Heliothis virescens [2]; rate 6.25 ppm,100%
same,Cotton Aphid mortality (72 h) Mortality (%),Aphis gossypii,100%
CCOC(C)C=CC1CCCC(OC2CCC(N(C)C)C(C)O2)C(C)C(=O)C2=CC3C(C=CC4CC(OC5OC(C)C(OC)C(OCC)C5OC)CC43)C2CC(=O)O1 (stereo not drawn) [Compound A19],Tobacco Budworm Feeding (96 h) Mortality (%),Heliothis virescens [2]; rate 400 ppm,100%
same,Cotton Aphid mortality (72 h) Mortality (%),Aphis gossypii,99%
CCCOC(C)C=CC1CCCC(OC2CCC(N(C)C)C(C)O2)C(C)C(=O)C2=CC3C(C=CC4CC(OC5OC(C)C(OC)C(OCCC)C5OC)CC43)C2CC(=O)O1 (stereo not drawn) [Compound A20],Tobacco Budworm Feeding (96 h) Mortality (%),Heliothis virescens [2]; rate 400 ppm,100%
same,Cotton Aphid mortality (72 h) Mortality (%),Aphis gossypii,99%
"CCCCOC(C)/C=C/C1CCC[C@H](O[C@H]2CC[C@H](N(C)C)[C@@H](C)O2)[C@@H](C)C(=O)C2=CC3C(C=CC4C[C@@H](O[C@@H]5O[C@@H](C)[C@H](OC)[C@@H](OCCCC)[C@H]5OC)CC43)C2CC(=O)O1 (stereo partly drawn) [Compound A21, (24-O-n-butyl)-for-(3′-O-n-butylrham)-I]",mortality at 400 ppm,Heliothis virescens [2]; rate 400 ppm,100%
same,mortality at 50 ppm,Aphis gossypii,59%
CCC=CC1CCCC(OC2CCC(N(C)C)C(C)O2)C(C)C(=O)C2=CC3C4CC(OC5OC(C)C(OC)C(OCC)C5OC)CC4CCC3C2CC(=O)O1 (stereo not drawn) [Compound A22],Tobacco Budworm Feeding (96 h) Mortality (%),Heliothis virescens [2]; rate 400 ppm,100%
same,Cotton Aphid mortality (72 h) Mortality (%),Aphis gossypii,99%
CCC=CC1CCCC(OC2CCC(N(C)C)C(C)O2)C(C)C(=O)C2=CC3C4CC(OC5OC(C)C(OC)C(OCCC)C5OC)CC4CCC3C2CC(=O)O1 (stereo not drawn) [Compound A23],Tobacco Budworm Feeding (96 h) Mortality (%),Heliothis virescens [2]; rate 400 ppm,100%
same,Cotton Aphid mortality (72 h) Mortality (%),Aphis gossypii,100%
CCC=CC1CCCC(OC2CCC(N(C)C)C(C)O2)C(C)C(=O)C2=CC3C4CC(OC5OC(C)C(OC)C(OCCCC)C5OC)CC4CCC3C2CC(=O)O1 (stereo not drawn) [Compound A24],Tobacco Budworm Feeding (96 h) Mortality (%),Heliothis virescens [2]; rate 400 ppm,100%
same,Cotton Aphid mortality (72 h) Mortality (%),Aphis gossypii,99%
CCOC(C)CCC1CCCC(OC2CCC(N(C)C)C(C)O2)C(C)C(=O)C2=CC3C4CC(OC5OC(C)C(OC)C(OC)C5OC)CC4CCC3C2CC(=O)O1 (stereo not drawn) [Compound A25],Cotton Aphid mortality (72 h) Mortality (%),Aphis gossypii,79%
same,Tobacco Budworm Typical (48 h) Mortality (%),"Heliothis virescens [1]; rate 1 µg/larva, 48 h",83%
CC=CC(CC(=O)OC)C1CCCC(OC2CCC(N(C)C)C(C)O2)C(C)C(=O)C2=CC3C(C=CC4CC(OC5OC(C)C(OC)C(OCC)C5OC)CC43)C2CC(=O)O1 (stereo not drawn) [Compound A27],Cotton Aphid mortality (72 h) Mortality (%),Aphis gossypii,33%
same,Tobacco Budworm Typical (48 h) Mortality (%),"Heliothis virescens [1]; rate 1 µg/larva, 48 h",100%
CC=CC(CC(=O)N(C)C)C1CCCC(OC2CCC(N(C)C)C(C)O2)C(C)C(=O)C2=CC3C(C=CC4CC(OC5OC(C)C(OC)C(OCC)C5OC)CC43)C2CC(=O)O1 (stereo not drawn) [Compound A28],Tobacco Budworm Feeding (96 h) Mortality (%),Heliothis virescens [2]; rate 400 ppm,100%
same,Cotton Aphid mortality (72 h) Mortality (%),Aphis gossypii,48%
"CCCCC1CCCC(OC2CCC(N(C)C)C(C)O2)C(C)C(=O)C2=CC3C4CC(OC5OC(C)C(OCC)C(OCC)C5OC)CC4CCC3C2CC(=O)O1 (stereo not drawn) [Compound B2, 5,6,22,23-tetrahydro-for-(3′,4′-bis-O-ethylrham)-I]",Cotton Aphid mortality (72 h) Mortality (%),Aphis gossypii,97%
same,Tobacco Budworm Typical (48 h) Mortality (%),"Heliothis virescens [1]; rate 1 µg/larva, 48 h",83%
COC1C(C)OC(OC2CC3CCC4C5CC(=O)OC(CCC(C)O)CCCC(OC6CCC(N(C)C)C(C)O6)C(C)C(=O)C5=CC4C3C2)C(OC)C1OC (stereo not drawn) [Compound B17],Cotton Aphid mortality (72 h) Mortality (%),Aphis gossypii,11%
same,Tobacco Budworm Typical (48 h) Mortality (%),"Heliothis virescens [1]; rate 1 µg/larva, 48 h",17%
"CC/C=C/[C@H]1CCC[C@H](OC2CC[C@H](N(C)C)[C@@H](C)O2)[C@@H](C)C(=O)C2=CC3C4C[C@H](O[C@@H]5O[C@@H](C)[C@H](OC)[C@@H](OC)[C@H]5OC)CC4C4OC4C3C2CC(=O)O1 (stereo partly drawn) [Compound C1, 5,6-epoxy-for-rham-I]",mortality at 400 ppm,Heliothis virescens [2]; rate 400 ppm,100%
same,mortality at 50 ppm,Aphis gossypii,95%
CCC=CC1CCCC(OC2CCC(N(C)CC)C(C)O2)C(C)C(=O)C2=CC3C(C=CC4CC(OC5OC(C)C(OC)C(OC)C5OC)CC43)C2CC(=O)O1 (stereo not drawn) [Compound D1],Tobacco Budworm Typical (48 h) Mortality (%),"Heliothis virescens [1]; rate 1 µg/larva, 48 h",83%
"CC/C=C/C1CCC[C@H](O[C@H]2CC[C@H](N(C)C=O)[C@@H](C)O2)[C@@H](C)C(=O)C2=CC3C(C=CC4C[C@@H](O[C@@H]5O[C@@H](C)[C@H](OC)[C@@H](OC)[C@H]5OC)CC43)C2CC(=O)O1 (stereo partly drawn) [Compound D4, (N-formyl)-for-rham-I]",mortality at 400 ppm,Heliothis virescens [2]; rate 400 ppm,100%
same,mortality at 50 ppm,Aphis gossypii,92%
CCC=CC1CCCC(OC2CCC(N(C)C(C)=O)C(C)O2)C(C)C(=O)C2=CC3C(C=CC4CC(OC5OC(C)C(OC)C(OC)C5OC)CC43)C2CC(=O)O1 (stereo not drawn) [Compound D5],Tobacco Budworm Feeding (96 h) Mortality (%),Heliothis virescens [2]; rate 400 ppm,100%
same,Cotton Aphid mortality (72 h) Mortality (%),Aphis gossypii,92%
